Read-outs that look alike come from different tables or passages of the source.
Key:
[1] = tested on: HISS-dependent insulin resistance in sucrose-fed rats; assay: RIST during neostigmine infusion in liquid sucrose-fed rats (Example 3); format: in vivo; settings: portal vein infusion
Text: Since both forms of diet produced the same degree of HDIR, the model of sucrose feeding using the liquid diet was used to determine whether this HDIR was reversible with the anticholinesterase agent, neostigmine.
The model of insulin resistance produced by the 35% liquid sucrose diet (in addition to regular rodent food pellets and normal drinking water) was identical to the protocol described above for the assessment of HDIR in sucrose-fed rats.
The surgical preparation was identical to that described above for sucrose-fed rats tested for HDIR. In addition, a laparotomy and portal vein cannulation were carried out. […] Following a laporotomy, the portal vein was cannulated.
After conducting a control RIST, neostigmine was infused into the portal vein for at least […] before a second RIST was conducted to determine if this agent could reverse the insulin resistance. The doses of neostigmine were 1 and 2 μg/kg/min.

[2] = tested on: atropine-induced HISS-dependent insulin resistance (HDIR); assay: Rapid insulin sensitivity test (RIST) in atropine model of 75% HDIR, reversal with neostigmine (Example 1); settings: neostigmine 1 μg/kg/min ipv
[3] = tested on: hepatic muscarinic receptors (insulin resistance); settings: cats, cited from earlier work
[4] = control RIST index 94.8±11.2 mg/kg

CN(C)C(=O)Oc1cccc([N+](C)(C)C)c1 [neostigmine]
Reversal of insulin resistance at 1 μg/kg/min ([1]; FIG. 3): did not produce a reversal of insulin resistance | RIST index during neostigmine 1 μg/kg/min [1, 4]: 80.9 ± 27.3 mg/kg | RIST index during neostigmine 2 μg/kg/min [1, 4]: 178.0 ± 17.7 mg/kg | RIST index during constant infusion of neostigmine ([2]; after atropine-induced 75% HDIR (blocked state 90.5±[…])): 152.6 ± 15.2 mg/kg | Reversal of HDIR produced by atropine ([2]; FIG. 1): able to reverse the HDIR

COc1ccccc1CNCCCCCCNCCCCCCCCNCCCCCCNCc1ccccc1OC [methoctramine]
Dose achieving a similar degree of insulin resistance ([3]; M2 selective antagonist): 10^−6 μmol/kg

CN1CCN(CC(=O)N2c3ccccc3C(=O)Nc3cccnc32)CC1 [pirenzepine]
Dose achieving a similar degree of insulin resistance ([3]; M1 muscarinic selective antagonist): 10^−7 mmol/kg

From US20050049293A1, “Use of cholinesterase antagonists to treat insulin resistance” (priority 2002, published 2005)
